We go through six molecules from patent US20050142067A1, “Zintrodes, multitrodes and uses thereof” (priority 2003, published 2005).

The target in one series is holoCA (Homo sapiens, UniProt P00918). Briefly: Binding of fluorescent reporter to holoCA. The conditions noted are these: order of magnitude in words. How it is done: The measurement is based on a literature method (44, 51). Aliquots of a 1 μM solution of the CA protein are mixed with several concentrations of DPSA, ranging from 1 nM to 10 μM. After 30 minutes of incubation, the fluorescence emission spectrum is measured with excitation at 365 nm and emission at 400-700 nm. Taking the intensity at 560 nm, which is the emission max of an apoCA-DPSA conjugate, at the highest concentration aliquot to represent 99% fractional saturation, and 1% at the lowest concentration aliquot, the fractional saturation is plotted as a function of the DPSA concentration on a logarithmic scale, and the data is fit to a single binding isotherm, e.g. fraction bound=KD/(1+KD) using Kaleidagraph (Synergy Software), or a similar program.
Because of the nature of the sulfonamide binding as a fourth ligand to the active site, DPSA binds as a 1:1 complex at realistic aliquot concentrations. If the fractional saturation is not near 1.0 at higher DPSA concentration because the DPSA binds more weakly to the variant, the curvature of the isotherm will not reach the peak intensity.

Another series has as its target CA-Zn (holoCA) (Homo sapiens, UniProt P00918). As to the kind of experiment: Screening of fluorescent reporters with CA and zinc (fluorescence intensity). As for the experimental part: (§1) Stock solutions of the fluorescent reporter were prepared in alcohol and diluted 1000-fold in the final measuring cuvette. Carbonic anhydrase protein (CA) was “apo-ized” as per a standard procedure (50). Zinc was added to a solution of the CA in the presence of the reporter and the change in fluorescence intensity and wavelength of the reporter were measured on a Spex DM-1B fluorescence spectrophotometer using He—Cd laser excitation.

A short description of series [1]: Spectral characteristics of reporters for CA-based zinc biosensor. The series is classed as physicochemical. How it is done:
as §1

Series [2] can be described thus: Leakage of reporter through microdialysis membrane. The series is classed as physicochemical. Particulars: microdialysis chamber (sock), HEPES external medium. As for the experimental part: A solution of DPSA was placed in the “sock” and the fluorescence of DPSA inside the dialysis chamber and in the external HEPES buffer solution was measured (FIG. 4A). The chamber was then filled with 10 μM apoCA and the external solution with […] HEPES buffer and 10 μM free zinc (FIG. 4B). Since the microdialysis membrane is impermeable to apoCA, any zinc that passes through the membrane is then trapped inside upon binding to apoCA. […] For example, if free zinc in the biological medium is 2 nM, then 0.90 nM zinc will be trapped within the “sock.”
However, DNSA “leaks out” of the membrane. DNSA reporter was covalently bound to amino-CPG beads using a 12 C or a 14 C tether and placed into the microdialysis membrane or “sock”. […] The DNSA-CPG bead system comprises a “molecular tether” means of entrapment (FIG. 7).

Series [3] can be described thus: Fluorescence response to zinc of dye in micropolymer spots on glass slides. Particulars: dye in polymer on glass slide, HEPES pH ˜7.4, 500 μM Zn^2+. As for the experimental part:
A proprietary micropolymer was obtained from Gary Kiefer of DOW. Two fluorescence sensors were mixed individually with the micropolymer. One was TFLZN which has a Kd of 10 μM for binding zinc and which is strongly hydrophilic. The other was ZP1, which is more lipophilic, binds zinc with a Kd of 0.5 nM, and is very bright with a quantum yield of 0.9. After mixing, the two solutions were spotted onto acid-cleaned glass slides in spots of 2.5 and 10.0 μL and allowed to cure overnight.
To evaluate the coatings, one microliter of HEPES (50 mM, pH ˜7.4) was put onto one spot on the polymer/probe coatings and a second spot with one microliter of the same HEPES plus 1 microliter of ZnSO4 (final [Zn^2+], 500 μM) was put next to the first spot. Images of the both spots were captured using the exact same camera settings for both spots. […] When the actual fluorescent intensity of the spots was measured using Photoshop, it was observed that the zinc-added spot was from 4-5-fold brighter that the HEPES spot. […] The change in fluorescence was not timed, but in this microscope-measuring system, the change appeared essentially instantaneously, i.e., within the few seconds it took to put the slide back in place, re-focus the microscope, and capture the second image. […] Furthermore, washing the spots with pure HEPES again lowered the fluorescence back to essentially the pre-zinc levels. […]

The conditions of series [4]: read-out: Kd for binding zinc; cited from earlier work.
Series [5] in a line: pZn meter calibration with metal buffer (ZP1). The series is classed as binding. Particulars: 50 μM bicine metal buffer, [ZP1]=100 nM; read-out: KD, fluorescence intensity midpoint. How it is done:
In calibrating the pZn meter using a metal buffer to control free zinc (FIG. 16A), the [ZP1] is <<than the effective [Zn2+ free] because the metal buffer, 50 μM bicine, can supply a large total number of Zn ions, while keeping the concentration of zinc ions fixed. Thus, in this calibration, the fluorescence intensity midpoint is approximately equal to the KD, 0.5 nM where [ZP1]=100 nM. In a second calibration, a ZP1 concentration of 20 nM of zinc, as ZnSO4, is used (FIG. 16B). Because no metal buffer is used and because the ZP1 concentration is much higher than the zinc concentration, this is a stoichiometric or “percent occupancy” titiration in which the fluorescence intensity is simply proportional to the molar ratio, [Zn]:[ZP1}.

The conditions of series [6]: cited from earlier work.
The next series deals with rabbit brain. The conditions noted are these: 1 mM in dialysis fluid, 10 minutes infusion, anesthetized rabbits, dorsal hippocampus.

Entries after “also recorded” stand apart in the source; their conditions may differ. Where two headings read alike, the source gives them in different places.

Procedure for rabbit brain: The microdialysis probes were aimed at the dorsal hippocampus in two acutely prepared rabbits, as described above, and the rabbits were anesthetized with isofluorane.
This caused spermine NONOate to release NO*, some of which presumably passed through the dialysis membrane and into the brain as a reverse dialysis procedure. The infusion lasted 10 minutes.

As for `CN(C)c1cccc2c(S(N)(=O)=O)cccc12` [DNSA, dansylamide], the “binding to holoCA” value on holoCA is “low micromole”. The “increase of fluorescent yield upon binding to holo-CA” value on CA-Zn (holoCA) came to 6 fold. In series [1], the Abs max was determined as 332 nm, the Emm max came out at 560 nm and the “Molar ε” value is 4.7 × 10^3 cm^−1M^−1. Further, the “leakage out of microdialysis membrane” value in series [2] is “leaks out”.
With `CN(C)c1ccc(-c2cnc(-c3ccc(S(N)(=O)=O)cc3)o2)cc1` [DPSA, dapoxylsulfonamide], the “binding to holoCA” value at holoCA is on record as “low picomole”. The “increase of fluorescent yield upon binding to holo-CA” value on CA-Zn (holoCA) is recorded as 20 fold. On CA-Zn (holoCA) (1 μM DPSA, alone or with the named CA), this molecule gave a fluorescence intensity of 70 units. In addition, in series [1], the Abs max is recorded as 355 nm, the Emm max was found to be 605 nm, the “Molar ε” value was 2.2 × 10^4 cm^−1M^−1 and the “absorption λmax” value stood at 340 nm. In addition, in series [2], the “leakage out of microdialysis membrane” value is given as “membrane impermeable; also recorded: does not leak out”.
Regarding `COc1cc(NS(=O)(=O)c2ccc(C(=O)O)cc2)c2nc(C)ccc2c1` [TFLZN], the “fluorescence of zinc-added spot versus HEPES spot” value in series [3] is ~15 fold. For the same molecule, in series [4], the Kd is 10000 nM.
As to `O=C(O)c1ccccc1-c1c2cc(Cl)c(=O)c(CN(Cc3ccccn3)Cc3ccccn3)c-2oc2c(CN(Cc3ccccn3)Cc3ccccn3)c(O)c(Cl)cc12` [ZP1, 9-(o-carboxyphenyl)-2,7-dichloro-4,5-bis[bis(2-pyridylmethyl)-aminomethyl]-6-hydroxy-3-xanthanone], the “fluorescence of zinc-added spot versus HEPES spot” value in series [3] is 4-5 fold. For the same molecule, the Kd in series [5] is ~0.5 nM; in series [4], 0.5 nM. The quantum yield result in [6] (after zinc binding) is “about 0.87”; in series [6] (before zinc binding), “about 0.39”; in series [6] (condition not stated), 0.9. Further, the excitation wavelength maximum in [6] (without zinc) is recorded as 515 nm; in [6] (zinc bound), 507 nm.
On to `O=C(O)c1ccccc1-c1c2cc(Cl)c(=O)cc-2oc2c(CNc3ccccc3CN(Cc3ccccn3)Cc3ccccn3)c(O)ccc12` [ZP4, 9-(o-carboxyphenyl)-2-chloro-5-[2-{bis(2-pyridylmethyl)aminomethyl}-N-methylaniline]-6-hydroxy-3-xanthanone], for which the quantum yield result in [6] (after zinc binding) is recorded as “about 0.34”; in [6] (before zinc binding), “about 0.06”. In addition, the pKa value result in [6] (relative to Zinpyr 1 and Zinpyr 2) was “lower”.
`NCCCNCCCCN(CCCN)/[N+]([O-])=N/O` [spermine NONOate]: in the series on rabbit brain, the “release of free zinc into dialysate” value was “vigorous release of free zinc”.

As a reminder, the Kd is a measure of binding affinity in units of concentration.
